Like-named read-outs stand apart in the source and are kept apart here.
Tests used:
U87 glioblastoma cells = experiment: Apoptosis (annexin V), PV and PGIA; format: cell-based, human; conditions: 24 h; PGIA 200 μM, PV 40 μM, alone or together
Description: Apoptosis: Cells (1.0×10^5 cells/well) were treated with or without PV, PGIA or valproic acid (VPA) for 24 or 48 h. After treatment, cells were trypsinized, stained with Annexin V-FITC (100× dilution, Invitrogen) and propidium iodide (PI) 0.5 μg/ml and the fluorescence intensity was analyzed by FACScaliber.

[1] = tested on: AGS human gastric cancer cells; format: in vivo, mice; conditions: i.p. in corn oil, 3 weeks; PSA-B 200, PSA-G 200, PIA-B 160, PVA-T 100 mg/kg
[2] = tested on: A431 human squamous cell carcinoma cells; format: in vivo, mice; conditions: hydrogel, topical, 2 weeks, estimated 80 mg/kg
[3] = tested on: A549 human non-small lung cancer cells; experiment: Orthotopic A549 lung tumor model in nude mice; format: in vivo
[4] = format: in vivo, mice; conditions: 55° C. hot plate, 30 min after single i.p. dose; 100 mg/kg, PI-PEG 1,600 mg/kg; control 1.91 ± 0.46
[5] = Biodistribution of liposomal phospho-ibuprofen amide in mice; format: in vivo
[6] = Pharmacokinetics after inhalational administration of PS; format: in vivo, mice; conditions: after 8 min inhalation, label = analyte
[7] = Pharmacokinetic study of phosphosulindac amide and sulindac, single oral dose; format: in vivo, mice; conditions: mouse, plasma, label = analyte
U87 cells = experiment: 24-h growth inhibition of U87 glioblastoma cells; format: cell-based; conditions: Homo sapiens, U-87 MG; U87, 24 h
Description: U87 cells were treated with sulindac and ibuprofen as well as with the compounds. U87 is a human primary glioblastoma cell line, formally known as U-87 MG. This cell line has epithelial morphology, and is one of the most frequently used glioblastoma cell lines.

[8] = 200 mg/kg once a week for 8 weeks
[9] = BALB/c nude, mouse, inhaled or intranasal, plasma
[10] = 66 mg/kg, single oral dose of sulindac equimolar to PSA, read-out: AUC0-24 h, sulindac administration

## CCCC(CCC)C(=O)OCCCCOP(=O)(OCC)OCC [PV]
U87 glioblastoma cells
  fold-increase of annexinV (+) cells: 3.0 fold

## CCOP(=O)(OCC)OCCCCNC(=O)C(C)c1ccc(CC(C)C)cc1 (stereo not shown) [Phospho-ibuprofen amide 105, Phosphoric acid diethyl ester 4-[2-(4-isobutyl-phenyl)-propionylamino]-butyl ester]
[1]
  tumor growth inhibition: 33.8%
[2]
  tumor growth inhibition: 51.5%
[3]; [8]
  reduction based on lung tumor weight / lung weight: 80%
  reduction of lung cancer based on fluorescence: 95%
[3]; liposomal, I.V.
  lung cancer on fluorescence images of lungs: essentially eliminated lung cancer
[4]
  latency values (mean±SD): 3.80 ± 0.46 s
[5]; compared with corresponding carboxylic ester compound
  blood and tissue levels of intact compound: significant blood and tissue levels of intact compound
[5]; liposomal, single 200 mg/kg i.v., 1 h
  biodistribution in major organs: preferentially accumulated in lungs

## CSc1ccc(/C=C2/C(C)=C(CC(=O)O)c3cc(F)ccc32)cc1 [Sulindac sulfide 146, sulindac sulfide]
[6]; [9]
  AUC: 66.9 µM·h
[6]; lung
  Tmax: 4 h
[6]; plasma
  Tmax: 4 h
[7]; [10]
  AUC(0-t): 691 µM·h
[7]; single oral dose 100 mg/kg PSA, read-out: AUC0-24 h, PSA administration
  AUC(0-t): 17.9 µM·h

## CC1=C(CC(=O)O)c2cc(F)ccc2/C1=C\c1ccc(S(C)(=O)=O)cc1 [Sulindac sulfone 147, sulindac sulfone]
[6]; BALB/c nude, mouse, inhaled or intranasal, lung, read-out: Tmax
  Tmax: 8 h
[6]; [9]
  AUC: 142 µM·h
  Cmax: 10.4 µM
[6]; BALB/c nude, mouse, inhaled or intranasal, plasma, read-out: Tmax
  Tmax: 8 h
[7]; [10]
  AUC(0-t): 93.4 µM·h

## CC1=C(CC(=O)O)c2cc(F)ccc2/C1=C\c1ccc([S+](C)[O-])cc1 (stereo not shown) [Sulindac]
[6]; [9]
  AUC: 49.5 µM·h
U87 cells
  IC50: ≥ 1000 µM
[7]; [10]
  AUC(0-t): 385 µM·h

Source: patent US20130225529A1, “PHOSPHO-ESTER DERIVATIVES AND USES THEREOF” (priority 2012, published 2013)
